According to PubChem BioAssay (NCI):
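Step 1: Grow cells in 96-well plates. Step 2: Expose to compound for 48 hours at 5 concentrations. Step 3: Interpolate endpoints linearly; if unreached, use highest concentration. The concentration for full growth arrest is given as TGI.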

Key:
Assay in all cases: NCI-60 cell line screen, 48 h
[1] = test system: BT-549 breast
[2] = test system: DU-145 prostate
[3] = test system: HCC-2998 colon
[4] = test system: HOP-62 NSCLC
[5] = test system: HOP-92 NSCLC
[6] = test system: LOX IMVI melanoma
[7] = test system: MDA-N
[8] = test system: OVCAR-8 ovarian
[9] = test system: SN12C renal
[10] = test system: T-47D breast
[11] = test system: UACC-62 melanoma

## C[C@]12CC[C@H]3[C@@H](CCC4=CC(=O)C=C[C@@]43OC(=O)C(F)(F)F)[C@@H]1CCC2=O
[1]
  TGI: > 100 µM
[2]
  TGI: > 100 µM
[3]
  TGI: > 100 µM
[4]
  TGI: > 100 µM
[5]
  TGI: > 100 µM
[6]
  TGI: > 100 µM
[7]
  TGI: > 100 µM
[8]
  TGI: > 100 µM
[9]
  TGI: > 100 µM
[10]
  TGI: > 100 µM
[11]
  TGI: > 100 µM

## CC(C)(C)OC(=O)[C@@H]1CCC(=O)N1C1(c2ccccc2)c2ccccc2-c2ccccc21
[1]
  TGI: > 100 µM
[2]
  TGI: > 100 µM
[3]
  TGI: > 100 µM
[4]
  TGI: > 100 µM
[5]
  TGI: > 100 µM
[6]
  TGI: 37.2 µM
[7]
  TGI: 96.8 µM
[8]
  TGI: > 100 µM
[9]
  TGI: > 100 µM
[10]
  TGI: > 100 µM
[11]
  TGI: > 100 µM

## CC1CC[C@@]2(OC1)O[C@H]1[C@H](O)[C@H]3[C@@H]4CC[C@H]5C[C@@H](OC6OC(CO)C(OC7OC(CO)C(O)C(OC8OCC(O)C(O)C8O)C7OC7OC(CO)C(O)C(O)C7OC7OC(CO)C(O)C(O)C7O)C(O)C6O)[C@H](O)C[C@]5(C)[C@H]4CC[C@]3(C)[C@H]1[C@@H]2C (some centres not stated)
[1]
  TGI: > 10 µM
[2]
  TGI: > 10 µM
[3]
  TGI: > 10 µM
[4]
  TGI: > 10 µM
[5]
  TGI: > 10 µM
[6]
  TGI: > 10 µM
[7]
  TGI: > 10 µM
[8]
  TGI: > 10 µM
[9]
  TGI: > 10 µM
[10]
  TGI: > 10 µM
[11]
  TGI: > 10 µM

## N#CC1(C#N)C(C#N)(C#N)C1(C#N)C(N)=O
[1]
  TGI: > 100 µM
[2]
  TGI: > 100 µM
[3]
  TGI: > 100 µM
[4]
  TGI: > 100 µM
[5]
  TGI: > 100 µM
[6]
  TGI: > 100 µM
[7]
  TGI: > 100 µM
[8]
  TGI: > 100 µM
[9]
  TGI: > 100 µM
[10]
  TGI: > 100 µM
[11]
  TGI: > 100 µM

## COC(=O)c1ccccc1C1CN=NC12Cc1c(ccc3c1CCC3)C2=O (configuration not stated)
[1]
  TGI: > 100 µM
[2]
  TGI: > 100 µM
[3]
  TGI: > 100 µM
[4]
  TGI: > 100 µM
[5]
  TGI: > 100 µM
[6]
  TGI: 60.4 µM
[7]
  TGI: 49.5 µM
[8]
  TGI: > 100 µM
[9]
  TGI: > 100 µM
[10]
  TGI: > 100 µM
[11]
  TGI: > 100 µM

## NNC(=O)Nc1nc2ccc(NN)cc2[nH]1
[1]
  TGI: 84.1 µM
[2]
  TGI: > 100 µM
[3]
  TGI: 41.4 µM
[4]
  TGI: > 100 µM
[5]
  TGI: 57.3 µM
[6]
  TGI: > 100 µM
[7]
  TGI: > 100 µM
[8]
  TGI: > 100 µM
[9]
  TGI: > 100 µM
[10]
  TGI: > 100 µM
[11]
  TGI: 56.4 µM

## COc1cccc(N=N/C(=N/NC(=O)c2ccc(C)cc2)c2ccc(N(CCC#N)CCC#N)cc2OC)c1
[1]
  TGI: > 100 µM
[2]
  TGI: > 100 µM
[3]
  TGI: > 100 µM
[4]
  TGI: > 100 µM
[5]
  TGI: > 100 µM
[6]
  TGI: > 100 µM
[7]
  TGI: > 100 µM
[8]
  TGI: > 100 µM
[9]
  TGI: > 100 µM
[10]
  TGI: > 100 µM
[11]
  TGI: > 100 µM
